These compounds were tested against T1, B7-1/CD28 (Homo sapiens, UniProt P33681) (assay: CD28/B7-1 ELISA (B7-1/CD28 binding inhibition)). Details: CD28-Fc coated wells; B7-1-Fc-biotin/streptavidin-alkaline phosphatase detection complex; 1% DMSO.
T1 sequence (P33681 35-242 limits assumed): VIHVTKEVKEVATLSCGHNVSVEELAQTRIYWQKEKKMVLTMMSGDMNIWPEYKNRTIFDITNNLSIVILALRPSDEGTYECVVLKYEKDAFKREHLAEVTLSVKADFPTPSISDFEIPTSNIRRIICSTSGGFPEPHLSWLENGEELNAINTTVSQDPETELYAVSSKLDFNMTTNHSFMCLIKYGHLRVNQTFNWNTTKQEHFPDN
Protocol: Evaluation of B7-1/CD28 Binding Inhibition for Test Compounds
Wells are coated with 300 ng CD28-Fc in carbonate buffer (pH 9.4) overnight at 4° C., blocked with 1% bovine serum albumin in tris-buffered saline (TBS) for 1 h at 22° C. and washed 3 times in TBS prior to assay. The detection complex is formed as follows: B7-1-Fc-biotin, prepared using NHS-LC-biotin (Pierce #21335) according to the manufacturers instructions (4.1 moles biotinimole Fc), is added at 0.8 ug/ml to streptavidin-alkaline phosphatase (Caltag Sa1008) at 1:1000 in TBS. A solution of test compound in dimethylsulfoxide (1% final) are added to this complex and incubated 30 min at 22° C. Detection complex (+/−inhibitors) is then added to the CD28 coated wells for 25 min at 22° C., washed 5 times with TBS, developed with the colorimetric substrate pNPP (Pierce #34045) in diethanolamine/MgCl2 buffer (pH 9.5) and read at 405 nm. The inhibition constant (IC50) is calculated by subtracting background binding and comparing to uninhibited (DMSO alone) controls. The inhibition constant represents the concentration of test compound required to achieve 50% inhibition.

| IC50 [nM] | SMILES |
| --- | --- |
| 800 | CCC(O)c1cccc(NC(=O)c2ccc(-n3[nH]c4c(c(-c5cccc(C(F)(F)F)c5)nc5c4cnn5C)c3=O)cc2)c1 (stereo not shown) [Example 100] |
| 950 | Cn1ncc2c3[nH]n(-c4ccc(S(=O)(=O)NCCO)cc4)c(=O)c3c(-c3cccc(C(F)(F)F)c3)nc21 [Example 104, N-(2-hydroxyethyl)-4-(6-methyl-3-oxo-4-[3-(trifluoromethyl)phenyl]-3,6-dihydrodipyrazolo[3,4-b:3,4-d]pyridin-2(1H)-yl)benzenesulfonamide] |
| 92 | Cn1ncc2c3[nH]n(-c4ccc(C(=O)NCCCCCO)cc4)c(=O)c3c(-c3cccc(C(F)(F)F)c3)nc21 [Example 96] |
| 180 | Cn1ncc2c3[nH]n(-c4ccc(C(=O)Nc5cccnc5)cc4)c(=O)c3c(-c3cccc(C(F)(F)F)c3)nc21 [Example 79] |
| 1500 | Cn1ncc2c3[nH]n(-c4ccc(S(=O)(=O)NCc5ccccc5)cc4)c(=O)c3c(-c3cccc(C(F)(F)F)c3)nc21 [Example 103, N-benzyl-4-[6-methyl-3-oxo-4-(3-trifluoromethyl-phenyl)-3,6-dihydro-1H-1,2,5,6,7-pentaaza-as-indacen-2-yl]-benzenesulfonamide] |
| 90 | Cc1c(CO)cccc1NC(=O)c1ccc(-n2[nH]c3c(c(-c4cccc(C(F)(F)F)c4)nc4c3cnn4C)c2=O)cc1 [Example 84] |
| 1800 | CN(CCC(N)=O)C(=O)c1ccc(-n2[nH]c3c(c(-c4cccc(C(F)(F)F)c4)nc4c3cnn4C)c2=O)cc1 [Example 85] |
| 390 | Cn1ncc2c3[nH]n(-c4ccc(C(=O)N5CCCC(O)C5)cc4)c(=O)c3c(-c3cccc(C(F)(F)F)c3)nc21 (stereo not shown) [Example 95] |
| 450 | Cn1ncc2c3[nH]n(-c4ccc(S(=O)(=O)NCC(=O)O)cc4)c(=O)c3c(-c3cccc(C(F)(F)F)c3)nc21 [Example 107, ({[4-(6-methyl-3-oxo-4-[3-(trifluoromethyl)phenyl]-3,6-dihydrodipyrazolo[3,4-b:3,4-d]pyridin-2(1H)-yl)phenyl]sulfonyl}amino)acetic acid] |
| 160 | CN(C)CCCNC(=O)c1ccc(-n2[nH]c3c(c(-c4cccc(C(F)(F)F)c4)nc4c3cnn4C)c2=O)cc1 [Example 90] |
| 110 | Cn1ncc2c3[nH]n(-c4ccc(C(=O)N5CCSC5)cc4)c(=O)c3c(-c3cccc(C(F)(F)F)c3)nc21 [Example 83] |
| 44 | Cn1ncc2c3[nH]n(-c4ccc(C(=O)Nc5ccc(CO)cc5)cc4)c(=O)c3c(-c3cccc(C(F)(F)F)c3)nc21 [Example 87] |
| 290 | CCN(CC)C(=O)C1CCCN(C(=O)c2ccc(-n3[nH]c4c(c(-c5cccc(C(F)(F)F)c5)nc5c4cnn5C)c3=O)cc2)C1 (stereo not shown) [Example 88] |
| 170 | COC(CN(C)C(=O)c1ccc(-n2[nH]c3c(c(-c4cccc(C(F)(F)F)c4)nc4c3cnn4C)c2=O)cc1)OC [Example 80] |
| 40 | Cn1ncc2c3[nH]n(-c4ccc(C(=O)Nc5ccccc5CO)cc4)c(=O)c3c(-c3cccc(C(F)(F)F)c3)nc21 [Example 86] |

Further lines, the compound ahead of its results:

| SMILES | IC50 [nM] |
| --- | --- |
| COCCCNC(=O)c1cccc(-n2[nH]c3c(c(-c4cccc(C(F)(F)F)c4)nc4c3cnn4C)c2=O)c1 [Example 63] | 180 |
| CC1CCCN(C(=O)c2cccc(-n3[nH]c4c(c(-c5cccc(C(F)(F)F)c5)nc5c4cnn5C)c3=O)c2)C1 (stereo not shown) [Example 57] | 92 |
| Cn1ncc2c3[nH]n(-c4ccc(S(=O)(=O)NCC5CC5)cc4)c(=O)c3c(-c3cccc(C(F)(F)F)c3)nc21 [Example 106, N-cyclopropylmethyl-4-[6-methyl-3-oxo-4-(3-trfluoromethyl-phenyl)-3,6-dihydro-1H-1,2,5,6,7-pentaaza-as-indacen-2-yl]-benzenesulfonamide] | 900 |
| CN(CCC#N)C(=O)c1ccc(-n2[nH]c3c(c(-c4cccc(C(F)(F)F)c4)nc4c3cnn4C)c2=O)cc1 [Example 72] | 110 |
| Cn1ncc2c3[nH]n(-c4cccc(C(=O)Nc5ccc(O)cc5)c4)c(=O)c3c(-c3cccc(C(F)(F)F)c3)nc21 [Example 7, N-(4-hydroxyphenyl)-3-(6-methyl-3-oxo-4-[3-(trifluoromethyl)phenyl]-3,6-dihydrodipyrazolo[3,4-b:3,4-d]pyridin-2(1H)-yl)benzamide] | 38 |
| Cn1ncc2c3[nH]n(-c4cccc(C(=O)N5CCSCC5)c4)c(=O)c3c(-c3cccc(C(F)(F)F)c3)nc21 [Example 10] | 70 |
| Cn1ncc2c3[nH]n(-c4ccc(C(=O)Nc5cccc(O)c5)cc4)c(=O)c3c(-c3cccc(C(F)(F)F)c3)nc21 [Example 71] | 140 |
| Cn1ncc2c3[nH]n(-c4ccc(F)c(C(=O)Nc5ccc(CCO)cc5)c4)c(=O)c3c(-c3cccc(C(F)(F)F)c3)nc21 [Example 62] | 380 |
| Cn1ncc2c3[nH]n(-c4cccc(C(=O)N5CCC(O)CC5)c4)c(=O)c3c(-c3cccc(C(F)(F)F)c3)nc21 [Example 59] | 105 |
| Cn1ncc2c3[nH]n(-c4ccc(C(=O)Nc5ccc(O)cc5)cc4)c(=O)c3c(-c3cccc(C(F)(F)F)c3)nc21 [Example 73] | 11 |
| CCOC(=O)c1cccc(NC(=O)c2cccc(-n3[nH]c4c(c(-c5cccc(C(F)(F)F)c5)nc5c4cnn5C)c3=O)c2)c1 [Example 48] | 440 |
| Cn1ncc2c3[nH]n(-c4cccc(C(=O)NCCOCCOCCN)c4)c(=O)c3c(-c3cccc(C(F)(F)F)c3)nc21 [Example 46] | 150 |
| Cn1ncc2c3[nH]n(-c4ccc(F)c(C(=O)N5CCOCC5)c4)c(=O)c3c(-c3cccc(C(F)(F)F)c3)nc21 [Example 66] | 2400 |
| Cn1ncc2c3[nH]n(-c4cccc(C(=O)N5CCC(C(=O)O)CC5)c4)c(=O)c3c(-c3cccc(C(F)(F)F)c3)nc21 [Example 54] | 860 |
| Cn1ncc2c3[nH]n(-c4cccc(C(=O)N5CCOCC5)c4)c(=O)c3c(-c3cccc(C(F)(F)F)c3)nc21 [Example 6] | 54 |
| Cn1ncc2c3[nH]n(-c4cccc(C(=O)Nc5cccc(CO)c5)c4)c(=O)c3c(-c3cccc(C(F)(F)F)c3)nc21 [Example 50] | 100 |
| Cn1ncc2c3[nH]n(-c4ccc(F)c(C(=O)Nc5ccc(CO)cc5)c4)c(=O)c3c(-c3cccc(C(F)(F)F)c3)nc21 [Example 68] | 370 |
| Cn1ncc2c3[nH]n(-c4cccc(C(=O)N5CCc6ccccc6C5)c4)c(=O)c3c(-c3cccc(C(F)(F)F)c3)nc21 [Example 52] | 300 |
| COC(=O)CNC(=O)c1cccc(-n2[nH]c3c(c(-c4cccc(C(F)(F)F)c4)nc4c3cnn4C)c2=O)c1 [Example 45] | 100 |
| Cn1ncc2c3[nH]n(-c4cccc(C(=O)NN)c4)c(=O)c3c(-c3cccc(C(F)(F)F)c3)nc21 [Example 44] | 80 |
| CN(Cc1ccccc1)C(=O)c1cccc(-n2[nH]c3c(c(-c4cccc(C(F)(F)F)c4)nc4c3cnn4C)c2=O)c1 [Example 56] | 180 |
| COC(=O)[C@H]1CCCN1C(=O)c1cc(-n2[nH]c3c(c(-c4cccc(C(F)(F)F)c4)nc4c3cnn4C)c2=O)ccc1Cl [Example 64] | 180 |
| Cn1ncc2c3[nH]n(-c4ccc(C(N)=O)cc4)c(=O)c3c(-c3cccc(C(F)(F)F)c3)nc21 [Example 70] | 38 |
| Cn1ncc2c3[nH]n(-c4ccc(C(=O)N5CCSCC5)cc4)c(=O)c3c(-c3cccc(C(F)(F)F)c3)nc21 [Example 77] | 140 |
| CC(O)CNC(=O)c1ccc(-n2[nH]c3c(c(-c4cccc(C(F)(F)F)c4)nc4c3cnn4C)c2=O)cc1 (stereo not shown) [Example 76] | 50 |

From patent US6734190B2, “Dihydrodipyrazolopyridinylbenzamide and -sulfonamide inhibitors of B7-1” (Wyeth, priority 2002, dated 2004)
